This note sets out measurements from ChEMBL document CHEMBL1152147, “Design at the atomic level: design of biaryloxazolidinones as potent orally active antibiotics” (Bioorg Med Chem Lett, 2008).

Test [1] relates to Haemophilus influenzae. Kind of test: Antimicrobial activity against Haemophilus influenzae parent strain RD1 by NCCLS method. The class given is functional.
For test [2], the system named is Streptococcus pneumoniae. Kind of test: Antimicrobial activity against mef (A) expressing Streptococcus pneumoniae 02J1175 by NCCLS method. The class given is functional.
Another test has as its system Escherichia coli. Kind of test: Inhibition of Escherichia coli translation. The test is classed as functional, organism-based.
The subject of test [3] is Haemophilus influenzae. Kind of test: Antimicrobial activity against Haemophilus influenzae 895 (AcrB-KO) by NCCLS method. The test is classed as functional.
Test [4] concerns Enterococcus faecalis. Put plainly: Antimicrobial activity against Linezolid-resistant Enterococcus faecalis P5 by NCCLS method. The test is classed as functional.
The test system of test [5] is Streptococcus pyogenes. Put plainly: Antimicrobial activity against erm (B) expressing Streptococcus pyogenes Msr 610 by NCCLS method. The class given is functional.
Test [6] relates to Streptococcus pyogenes. Put plainly: Antimicrobial activity against erm (B) Streptococcus pyogenes msr610 by NCCLS method. The test is classed as functional.
In the next test the test system is Staphylococcus aureus. Put plainly: Antimicrobial activity against methicillin-resistant Staphylococcus aureus 67-0 by NCCLS method. The test is classed as functional.
For test [7], the system named is Streptococcus pneumoniae. Put plainly: Antimicrobial activity against erm (B) expressing Streptococcus pneumoniae 02J1258 + L4 by NCCLS method. The class given is functional.
Test [8] has as its system Haemophilus influenzae. Put plainly: Antimicrobial activity against Haemophilus influenzae A1950 by NCCLS method. The class given is functional.
In test [9] the test system is Enterococcus faecalis. Put plainly: Antimicrobial activity against Linezolid-resistant Enterococcus faecalis ATCC 29212-P5 by NCCLS method. The class given is functional.
The subject of a further test is Enterococcus faecium. Kind of test: Antimicrobial activity against vanA+ expressing Enterococcus faecium A6349 by NCCLS method.
Test [10] deals with Haemophilus influenzae. Put plainly: Antimicrobial activity against Haemophilus influenzae 1100 by NCCLS method. The test is classed as functional.
The subject of test [11] is Haemophilus influenzae. Kind of test: Antimicrobial activity against Haemophilus influenzae by NCCLS method. The test is classed as functional.
The test system of test [12] is Enterococcus faecalis. Kind of test: Antimicrobial activity against vanB+ expressing Enterococcus faecalis 1069 by NCCLS method. The class given is functional.

Broadly, the IC50 is the concentration needed to halve the response being measured. Higher therefore signals a need for much substance.

Values after ≈ are worked out from the molar mass of the structure shown.

On to `CC(=O)NC[C@H]1CN(c2ccc(-c3ccc(CNCc4ccncc4)cc3)c(F)c2)C(=O)O1`, for which the MIC in the test on Haemophilus influenzae [1] came out at 8 µg/mL (≈ 17.8 µM); in the test on Streptococcus pneumoniae [2] it was 0.25 µg/mL (≈ 0.557 µM); against Haemophilus influenzae [3] it was 0.5 µg/mL (≈ 1.11 µM); in the test with Enterococcus faecalis [4], 2 µg/mL (≈ 4.46 µM); in the test with Streptococcus pyogenes [5] it was 0.5 µg/mL (≈ 1.11 µM). The compound also registered an IC50 with Escherichia coli of 50 nM.

With `CC(=O)NC[C@H]1CN(c2ccc(-c3ccc(Cn4cnnn4)cc3)c(F)c2)C(=O)O1`, the MIC with Streptococcus pyogenes [6] came out at 0.5 µg/mL (≈ 1.22 µM); against Staphylococcus aureus, 1 µg/mL (≈ 2.44 µM); in the test on Streptococcus pneumoniae [7], 0.5 µg/mL; in the test with Haemophilus influenzae [1], 2 µg/mL (≈ 4.87 µM); against Haemophilus influenzae [8] it was 8 µg/mL (≈ 19.5 µM); in the test with Streptococcus pneumoniae [2], 0.25 µg/mL (≈ 0.609 µM). The MIC with Enterococcus faecalis [9] is 1 µg/mL (≈ 2.44 µM); in the test on Enterococcus faecium, 1 µg/mL (≈ 2.44 µM); against Haemophilus influenzae [10], 2 µg/mL (≈ 4.87 µM); against Haemophilus influenzae [11] it was 4 µg/mL (≈ 9.75 µM); against Enterococcus faecalis [12], 0.5 µg/mL (≈ 1.22 µM).

For the compound `CC(=O)NC[C@H]1CN(c2ccc(-c3ccc(CNCc4cnoc4)cc3)c(F)c2)C(=O)O1`, the MIC was found to be 0.125 µg/mL (≈ 0.285 µM) against Streptococcus pyogenes [6]; 0.125 µg/mL in the test with Streptococcus pneumoniae [7]; 2 µg/mL (≈ 4.56 µM) with Haemophilus influenzae [1]; 8 µg/mL (≈ 18.2 µM) against Haemophilus influenzae [8]; 0.125 µg/mL (≈ 0.285 µM) with Streptococcus pneumoniae [2]; 2 µg/mL (≈ 4.56 µM) in the test with Enterococcus faecalis [9]. Also, the MIC in the test on Enterococcus faecium turned out to be 1 µg/mL (≈ 2.28 µM); in the test with Haemophilus influenzae [10], 1 µg/mL (≈ 2.28 µM); against Haemophilus influenzae [11], 4 µg/mL (≈ 9.12 µM); against Enterococcus faecalis [12], 0.5 µg/mL (≈ 1.14 µM).

With `CC(=O)NC[C@H]1CN(c2ccc(-c3ccc(CNCc4ccnc5ccccc45)cc3)c(F)c2)C(=O)O1`, the MIC in the test with Haemophilus influenzae [1] came to 8 µg/mL (≈ 16 µM); in the test on Streptococcus pneumoniae [2], 0.5 µg/mL (≈ 1 µM); against Haemophilus influenzae [3] it was 1 µg/mL (≈ 2.01 µM); with Enterococcus faecalis [4] it was 2 µg/mL (≈ 4.01 µM); against Streptococcus pyogenes [5], 0.5 µg/mL (≈ 1 µM). In addition, the IC50 in the test on Escherichia coli is below 20 nM.

In the case of `CC(=O)NC[C@H]1CN(c2ccc(-c3ccc(CNCC#N)cc3)c(F)c2)C(=O)O1`, the MIC was determined as 0.25 µg/mL (≈ 0.631 µM) in the test on Streptococcus pyogenes [6]; 0.5 µg/mL (≈ 1.26 µM) against Staphylococcus aureus; 0.25 µg/mL in the test with Streptococcus pneumoniae [7]; 4 µg/mL (≈ 10.1 µM) in the test on Haemophilus influenzae [1]; 8 µg/mL (≈ 20.2 µM) in the test on Haemophilus influenzae [8]; 0.25 µg/mL (≈ 0.631 µM) with Streptococcus pneumoniae [2]. The MIC in the test on Enterococcus faecalis [9] is 1 µg/mL (≈ 2.52 µM); against Enterococcus faecium, 1 µg/mL (≈ 2.52 µM); in the test on Haemophilus influenzae [10] it was 4 µg/mL (≈ 10.1 µM); against Haemophilus influenzae [11], 8 µg/mL (≈ 20.2 µM); in the test on Enterococcus faecalis [12], at most 0.25 µg/mL.

For `CC(=O)NC[C@H]1CN(c2ccc(-c3ccc(Cn4ncnn4)cc3)c(F)c2)C(=O)O1`, the MIC in the test on Streptococcus pyogenes [6] was 0.125 µg/mL (≈ 0.305 µM); in the test on Staphylococcus aureus, 0.5 µg/mL (≈ 1.22 µM); with Streptococcus pneumoniae [7] it was 0.25 µg/mL; with Haemophilus influenzae [1], 4 µg/mL (≈ 9.75 µM); against Haemophilus influenzae [8], 8 µg/mL (≈ 19.5 µM); in the test on Streptococcus pneumoniae [2], 0.125 µg/mL (≈ 0.305 µM). Further, the MIC was 1 µg/mL (≈ 2.44 µM) against Enterococcus faecalis [9]; 0.5 µg/mL (≈ 1.22 µM) with Enterococcus faecium; 4 µg/mL (≈ 9.75 µM) in the test with Haemophilus influenzae [10]; 8 µg/mL (≈ 19.5 µM) in the test on Haemophilus influenzae [11]; at most 0.25 µg/mL against Enterococcus faecalis [12].

Consider `CC(=O)NC[C@H]1CN(c2ccc(-c3ccc(CNCCCF)cc3)c(F)c2)C(=O)O1`, for which the MIC against Streptococcus pyogenes [6] was found to be 0.125 µg/mL (≈ 0.299 µM); against Staphylococcus aureus it was 1 µg/mL (≈ 2.4 µM); in the test on Streptococcus pneumoniae [7], 0.125 µg/mL; in the test with Haemophilus influenzae [1] it was 2 µg/mL (≈ 4.79 µM); against Haemophilus influenzae [8] it was 4 µg/mL (≈ 9.58 µM); against Streptococcus pneumoniae [2] it was 0.125 µg/mL (≈ 0.299 µM). For the same compound, the MIC in the test with Enterococcus faecalis [9] is 2 µg/mL (≈ 4.79 µM); against Enterococcus faecium, 1 µg/mL (≈ 2.4 µM); against Haemophilus influenzae [10] it was 2 µg/mL (≈ 4.79 µM); in the test with Haemophilus influenzae [11], 4 µg/mL (≈ 9.58 µM); with Enterococcus faecalis [12], 0.5 µg/mL (≈ 1.2 µM).

As to `CC(=O)NC[C@H]1CN(c2ccc(-c3ccc(Cn4ccnn4)cc3)c(F)c2)C(=O)O1`, the MIC in the test with Streptococcus pyogenes [6] amounted to 0.5 µg/mL (≈ 1.22 µM); against Staphylococcus aureus, 0.5 µg/mL (≈ 1.22 µM); with Streptococcus pneumoniae [7], 0.25 µg/mL; with Haemophilus influenzae [1], 4 µg/mL (≈ 9.77 µM); against Haemophilus influenzae [8], 8 µg/mL (≈ 19.5 µM); with Streptococcus pneumoniae [2], 0.5 µg/mL (≈ 1.22 µM). Besides, the MIC was 1 µg/mL (≈ 2.44 µM) in the test on Enterococcus faecalis [9]; 1 µg/mL (≈ 2.44 µM) with Enterococcus faecium; 2 µg/mL (≈ 4.88 µM) against Haemophilus influenzae [10]; 4 µg/mL (≈ 9.77 µM) with Haemophilus influenzae [11]; 0.5 µg/mL (≈ 1.22 µM) in the test on Enterococcus faecalis [12].

Consider `CC(=O)NC[C@H]1CN(c2ccc(-c3ccc(CNCc4ccco4)cc3)c(F)c2)C(=O)O1`, for which the MIC with Haemophilus influenzae [1] came out at 4 µg/mL (≈ 9.14 µM); with Streptococcus pneumoniae [2] it was 0.25 µg/mL (≈ 0.571 µM); in the test on Haemophilus influenzae [3], 0.5 µg/mL (≈ 1.14 µM); in the test with Enterococcus faecalis [4], 4 µg/mL (≈ 9.14 µM); against Streptococcus pyogenes [5], 0.25 µg/mL (≈ 0.571 µM). Besides, the IC50 in the test with Escherichia coli is 40 nM.

For `CC(=O)NC[C@H]1CN(c2ccc(N3CCOCC3)c(F)c2)C(=O)O1` [LINEZOLID], the MIC in the test with Streptococcus pyogenes [6] amounted to 1 µg/mL (≈ 2.96 µM); in the test with Haemophilus influenzae [1], 16 µg/mL (≈ 47.4 µM); with Haemophilus influenzae [8], 32 µg/mL (≈ 94.9 µM); in the test with Enterococcus faecalis [9], 32 µg/mL (≈ 94.9 µM); in the test on Haemophilus influenzae [3] it was 8 µg/mL (≈ 23.7 µM); in the test on Enterococcus faecalis [4], 32 µg/mL (≈ 94.9 µM). For the same compound, the MIC was 1 µg/mL (≈ 2.96 µM) against Streptococcus pyogenes [5], 16 µg/mL (≈ 47.4 µM) against Haemophilus influenzae [10] and 32 µg/mL (≈ 94.9 µM) against Haemophilus influenzae [11]. For the same compound, in the test with Escherichia coli, the IC50 was found to be 4600 nM.

Take `CC(=O)NC[C@H]1CN(c2ccc(-c3ccc(CNCc4cnn[nH]4)cc3)c(F)c2)C(=O)O1` [RADEZOLID]: the MIC against Streptococcus pyogenes [6] stood at 0.125 µg/mL (≈ 0.285 µM); against Staphylococcus aureus it was 1 µg/mL (≈ 2.28 µM); with Streptococcus pneumoniae [7], 0.25 µg/mL; with Haemophilus influenzae [1], 0.5 µg/mL (≈ 1.14 µM); in the test with Haemophilus influenzae [8], 1 µg/mL (≈ 2.28 µM); with Streptococcus pneumoniae [2], 0.25 µg/mL (≈ 0.57 µM). The MIC in the test with Enterococcus faecalis [9] was 1 µg/mL (≈ 2.28 µM); with Enterococcus faecium, 0.5 µg/mL (≈ 1.14 µM); in the test with Haemophilus influenzae [10], 0.25 µg/mL (≈ 0.57 µM); in the test with Haemophilus influenzae [11], 1 µg/mL (≈ 2.28 µM); against Enterococcus faecalis [12], at most 0.25 µg/mL.
